In ChEMBL document CHEMBL3526101, “Discovery and characterization of novel, potent, and selective cytochrome P450 2J2 inhibitors” (Drug Metab Dispos, 2013):

B1: Cytochrome P450 2J2 (Homo sapiens) (protein)
chain: MLAAMGSLAAALWAVVHPRTLLLGTVAFLLAADFLKRRRPKNYPPGPWRLPFLGNFFLVDFEQSHLEVQLFVKKYGNLFSLELGDISAVLITGLPLIKEALIHMDQNFGNRPVTPMREHIFKKNGLIMSSGQAWKEQRRFTLTALRNFGLGKKSLEERIQEEAQHLTEAIKEENGQPFDPHFKINNAVSNIICSITFGERFEYQDSWFQQLLKLLDEVTYLEASKTCQLYNVFPWIMKFLPGPHQTLFSNWKKLKLFVSHMIDKHRKDWNPAETRDFIDAYLKEMSKHTGNPTSSFHEENLICSTLDLFFAGTETTSTTLRWALLYMALYPEIQEKVQAEIDRVIGQGQQPSTAARESMPYTNAVIHEVQRMGNIIPLNVPREVTVDTTLAGYHLPKGTMILTNLTALHRDPTEWATPDTFNPDHFLENGQFKKREAFMPFSIGKRACLGEQLARTELFIFFTSLMQKFTFRPPNNEKLSLKFRMGITISPVSHRLCAVPQV

Assays:
[1] = target: T1, Cytochrome P450 1A2 (Homo sapiens, UniProt P05177)
T1 sequence (P05177 whole entry): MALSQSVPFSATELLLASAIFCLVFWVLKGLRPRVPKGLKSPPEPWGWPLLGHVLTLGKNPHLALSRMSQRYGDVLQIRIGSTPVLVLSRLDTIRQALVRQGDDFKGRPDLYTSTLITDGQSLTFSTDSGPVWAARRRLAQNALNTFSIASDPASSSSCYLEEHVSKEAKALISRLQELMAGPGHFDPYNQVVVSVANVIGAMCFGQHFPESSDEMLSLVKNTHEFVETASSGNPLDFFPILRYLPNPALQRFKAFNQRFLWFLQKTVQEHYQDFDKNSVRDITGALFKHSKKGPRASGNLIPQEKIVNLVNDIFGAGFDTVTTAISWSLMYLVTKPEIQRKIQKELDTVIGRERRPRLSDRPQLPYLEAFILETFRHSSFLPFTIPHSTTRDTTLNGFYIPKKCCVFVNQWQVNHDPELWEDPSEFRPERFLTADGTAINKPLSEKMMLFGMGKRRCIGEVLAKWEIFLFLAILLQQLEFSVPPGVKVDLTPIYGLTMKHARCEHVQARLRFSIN

[2] = target: Cytochrome P450 2C9 (Homo sapiens, UniProt P11712)
Sequence of Cytochrome P450 2C9 (P11712 whole entry): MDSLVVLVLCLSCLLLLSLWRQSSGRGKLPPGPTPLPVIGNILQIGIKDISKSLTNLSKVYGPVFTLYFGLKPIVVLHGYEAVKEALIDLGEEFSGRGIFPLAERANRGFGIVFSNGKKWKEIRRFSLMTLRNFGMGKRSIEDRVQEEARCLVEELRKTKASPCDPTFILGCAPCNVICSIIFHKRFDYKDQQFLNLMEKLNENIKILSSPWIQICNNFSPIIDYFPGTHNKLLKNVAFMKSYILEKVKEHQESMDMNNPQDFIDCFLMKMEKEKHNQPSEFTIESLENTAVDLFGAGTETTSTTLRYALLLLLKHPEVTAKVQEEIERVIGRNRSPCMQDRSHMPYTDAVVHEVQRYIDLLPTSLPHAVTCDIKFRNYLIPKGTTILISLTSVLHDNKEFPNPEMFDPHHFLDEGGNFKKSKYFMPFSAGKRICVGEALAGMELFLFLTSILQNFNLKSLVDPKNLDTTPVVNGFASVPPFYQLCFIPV

[3] = target: Cytochrome P450 3A4 (Homo sapiens, UniProt P08684)
Sequence of Cytochrome P450 3A4 (P08684 whole entry): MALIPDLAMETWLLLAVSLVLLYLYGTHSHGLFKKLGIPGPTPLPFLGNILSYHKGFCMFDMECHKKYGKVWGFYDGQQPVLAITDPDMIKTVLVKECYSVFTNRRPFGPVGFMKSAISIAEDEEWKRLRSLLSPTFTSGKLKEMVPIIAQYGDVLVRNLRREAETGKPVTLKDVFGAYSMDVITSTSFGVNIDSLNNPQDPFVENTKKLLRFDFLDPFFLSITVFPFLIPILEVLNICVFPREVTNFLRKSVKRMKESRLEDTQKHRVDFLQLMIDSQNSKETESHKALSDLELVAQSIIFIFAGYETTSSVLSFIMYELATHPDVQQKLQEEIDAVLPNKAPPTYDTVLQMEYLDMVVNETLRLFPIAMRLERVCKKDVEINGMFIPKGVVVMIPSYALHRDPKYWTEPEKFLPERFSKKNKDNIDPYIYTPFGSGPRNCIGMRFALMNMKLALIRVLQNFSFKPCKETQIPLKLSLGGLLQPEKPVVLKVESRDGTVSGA
Description: Inhibition of CYP3A4 in human liver microsomes using testosterone substrate by LC-MS/MS method

[4] = target: T2, Cytochrome P450 2J2 (Homo sapiens, UniProt P51589)
T2 sequence (P51589 whole entry): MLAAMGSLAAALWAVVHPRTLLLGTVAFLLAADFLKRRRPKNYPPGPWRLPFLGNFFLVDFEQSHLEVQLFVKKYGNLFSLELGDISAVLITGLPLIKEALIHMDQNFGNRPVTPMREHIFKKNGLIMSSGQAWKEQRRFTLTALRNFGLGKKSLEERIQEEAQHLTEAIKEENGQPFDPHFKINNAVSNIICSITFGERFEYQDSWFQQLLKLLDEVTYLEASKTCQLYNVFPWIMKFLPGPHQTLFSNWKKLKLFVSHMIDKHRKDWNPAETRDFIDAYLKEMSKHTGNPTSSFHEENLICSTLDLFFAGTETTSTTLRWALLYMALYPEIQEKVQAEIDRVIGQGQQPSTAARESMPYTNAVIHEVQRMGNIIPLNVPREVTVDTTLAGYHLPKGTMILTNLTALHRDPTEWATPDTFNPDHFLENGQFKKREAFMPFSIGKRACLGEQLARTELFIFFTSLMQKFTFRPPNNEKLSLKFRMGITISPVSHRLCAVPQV

[5] = target: Cytochrome P450 2D6 (Homo sapiens, UniProt P10635)
Sequence of Cytochrome P450 2D6 (P10635 whole entry): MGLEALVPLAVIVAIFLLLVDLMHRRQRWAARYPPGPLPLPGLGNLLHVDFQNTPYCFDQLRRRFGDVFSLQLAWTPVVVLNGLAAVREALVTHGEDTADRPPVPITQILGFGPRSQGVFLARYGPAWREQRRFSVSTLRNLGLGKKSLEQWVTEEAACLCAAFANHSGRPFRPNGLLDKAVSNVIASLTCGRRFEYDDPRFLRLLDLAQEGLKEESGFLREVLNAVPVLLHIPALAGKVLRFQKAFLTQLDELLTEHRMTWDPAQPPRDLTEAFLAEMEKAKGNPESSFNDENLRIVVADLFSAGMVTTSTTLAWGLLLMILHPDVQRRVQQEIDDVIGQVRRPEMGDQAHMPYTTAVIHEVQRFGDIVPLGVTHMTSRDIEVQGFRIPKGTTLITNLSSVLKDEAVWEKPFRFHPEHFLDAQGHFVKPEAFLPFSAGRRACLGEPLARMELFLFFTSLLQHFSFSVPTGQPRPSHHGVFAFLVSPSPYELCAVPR

[6] = target: Cytochrome P450 2C19 (Homo sapiens, UniProt P33261)
Sequence of Cytochrome P450 2C19 (P33261 whole entry): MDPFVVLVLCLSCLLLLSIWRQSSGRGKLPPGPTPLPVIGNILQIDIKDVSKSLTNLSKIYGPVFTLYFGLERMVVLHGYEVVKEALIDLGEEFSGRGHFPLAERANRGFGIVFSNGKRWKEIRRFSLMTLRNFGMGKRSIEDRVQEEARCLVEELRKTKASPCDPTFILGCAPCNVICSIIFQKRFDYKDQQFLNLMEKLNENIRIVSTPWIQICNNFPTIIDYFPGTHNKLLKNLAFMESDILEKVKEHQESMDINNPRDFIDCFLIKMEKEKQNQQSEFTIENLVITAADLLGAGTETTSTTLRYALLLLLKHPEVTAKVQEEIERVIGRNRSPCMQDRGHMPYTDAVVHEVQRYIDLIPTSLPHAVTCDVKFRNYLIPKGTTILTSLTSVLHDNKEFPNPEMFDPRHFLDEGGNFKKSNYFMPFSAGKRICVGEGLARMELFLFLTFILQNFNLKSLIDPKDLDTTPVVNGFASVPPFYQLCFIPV

[7] = Metabolic stability in human liver microsomes at 1 uM after 30 mins by LC-MS/MS method; type: ADME; conditions: read-out: Stability
[8] = Tmax in human; type: ADME, organism-based; conditions: in vivo
[9] = target: T2, Cytochrome P450 2J2; test: Drug metabolism assessed as human recombinant CYP2J2-mediated intrinsic clearance assessed per pmol protein after 30 mins; type: ADME; conditions: recombinant enzyme, 0.5 h
[10] = substrate: COc1ccc(CCN2CCC(Nc3nc4ccccc4n3Cc3ccc(F)cc3)CC2)cc1; test: Activity of human recombinant CYP2J2 assessed as compound O-demethylation; type: ADME

Molecule	IC50 [1] [µM]	IC50 [4] [µM]	also measured
CCn1cc(C(=O)O)c(=O)c2cc(F)c(N3CCNCC3)cc21 [NORFLOXACIN]	> 50		IC50 [2]: > 50 µM
COc1ccc(CCN(C)CCCC(C#N)(c2ccc(OC)c(OC)c2)C(C)C)cc1OC (stereo unspecified)	> 50		
COCCc1ccc(OCC(O)CNC(C)C)cc1 (stereo unspecified) [METOPROLOL]	> 50		IC50 [3]: > 50 µM
CC[C@H]1OC(=O)[C@H](C)[C@@H](O[C@H]2C[C@@](C)(OC)[C@@H](O)[C@H](C)O2)[C@H](C)[C@@H](O[C@@H]2O[C@H](C)C[C@H](N(C)C)[C@H]2O)[C@](C)(O)C[C@@H](C)C(=O)[C@H](C)[C@@H](O)[C@]1(C)O [ERYTHROMYCIN]		> 50	
C[C@]12C=CC(=O)C=C1CC[C@H]1[C@@H]3C[C@@H](O)[C@](O)(C(=O)CO)[C@@]3(C)C[C@H](O)[C@@]12F [TRIAMCINOLONE]	> 50	9.47	IC50 [5]: > 50 µM; IC50 [2]: > 50 µM
COc1ccc2[nH]c([S+]([O-])Cc3ncc(C)c(OC)c3C)nc2c1 (stereo unspecified) [OMEPRAZOLE]		> 50	
C=CCc1ccccc1OCC(O)CNC(C)C (stereo unspecified) [ALPRENOLOL]		> 50	
NC(=O)N1c2ccccc2C=Cc2ccccc21 [CARBAMAZEPINE]		> 50	
COc1ccc2c(c1)[C@]13CCCC[C@@H]1[C@H](C2)N(C)CC3 [DEXTROMETHORPHAN]		> 50	
CN1C(C(=O)Nc2ccccn2)=C(O)c2ccccc2S1(=O)=O [PIROXICAM]		> 50	
CC(C)COCC(CN(Cc1ccccc1)c1ccccc1)N1CCCC1 (stereo unspecified) [BEPRIDIL]	> 50	11.5	IC50 [5]: > 50 µM
CCCc1nc2c(C)cc(-c3nc4ccccc4n3C)cc2n1Cc1ccc(-c2ccccc2C(=O)O)cc1	> 50		IC50 [6]: > 50 µM; remaining at 0.5 h, 1 µM [7]: 97.7%; IC50 [5]: > 50 µM; IC50 [2]: 4.78 µM
Fc1ccc(C(c2ccc(F)cc2)N2CCN(C/C=C/c3ccccc3)CC2)cc1 [FLUNARIZINE]	> 50		Tmax [8]: 4 h; IC50 [6]: > 50 µM; remaining at 0.5 h, 1 µM [7]: 83.8%; IC50 [2]: > 50 µM
Cc1c(OCC(F)(F)F)ccnc1C[S+]([O-])c1nc2ccccc2[nH]1 (stereo unspecified) [LANSOPRAZOLE]		> 50	
COCC(=O)O[C@]1(CCN(C)CCCc2nc3ccccc3[nH]2)CCc2cc(F)ccc2[C@@H]1C(C)C [MIBEFRADIL]	> 50	2.14	IC50 [6]: 1.32 µM; IC50 [5]: 0.84 µM; IC50 [2]: 28.4 µM
CN(C)CCCN1c2ccccc2CCc2ccccc21 [IMIPRAMINE]		> 50	
CC1(C)S[C@@H]2[C@H](NC(=O)[C@H](N)c3ccc(O)cc3)C(=O)N2[C@H]1C(=O)O [AMOXICILLIN]		> 50	
CO/N=C(\C(=O)N[C@@H]1C(=O)N2C(C(=O)O)=C(CSc3nc(=O)c(=O)[nH]n3C)CS[C@H]12)c1csc(N)n1 [CEFTRIAXONE]		27.4	
Nc1ccc(S(=O)(=O)Nc2ccnn2-c2ccccc2)cc1 [SULFAPHENAZOLE]		> 50	
CCCc1nc(C(C)(C)O)c(C(=O)O)n1Cc1ccc(-c2ccccc2-c2nnn[nH]2)cc1 [OLMESARTAN]		> 50	
Cc1cccc(Nc2ccccc2C(=O)O)c1C [MEFENAMIC ACID]		> 50	
CCN(CC)Cc1cc(Nc2ccnc3cc(Cl)ccc23)ccc1O [AMODIAQUINE]			IC50 [3]: > 50 µM
C[C@]12C=CC(=O)C=C1CC[C@@H]1[C@@H]2[C@@H](O)C[C@@]2(C)[C@H]1CC[C@]2(O)C(=O)CO [PREDNISOLONE]		> 50	
COc1ccc(CCN2CCC(Nc3nc4ccccc4n3Cc3ccc(F)cc3)CC2)cc1 [ASTEMIZOLE]			CL [9]: 3.05 µL/min
CC(=O)Nc1ccc(O)cc1 [ACETAMINOPHEN]		> 50	
CCc1oc2ccccc2c1C(=O)c1cc(Br)c(O)c(Br)c1 [BENZBROMARONE]	33.1	4.26	IC50 [5]: > 50 µM
CN[C@H]1CC[C@@H](c2ccc(Cl)c(Cl)c2)c2ccccc21 [SERTRALINE]	29.7	18.5	IC50 [6]: 22.5 µM; IC50 [5]: 2.88 µM; IC50 [2]: > 50 µM
CN1CCC[C@@H]1Cc1c[nH]c2ccc(CCS(=O)(=O)c3ccccc3)cc12		> 50	
C[C@@H]1C[C@H]2[C@@H]3CCC4=CC(=O)C=C[C@]4(C)[C@@]3(F)[C@@H](O)C[C@]2(C)[C@@]1(O)C(=O)CO [DEXAMETHASONE]		> 50	
B1			Km [10]: 0.09 µM; Vmax [10]: 0.000339 µmol/min
